“And” between values parts separate entries of the source, which are not always exact repeats. Identical values can stand only once. Marks after values point to notes of the source that are not given here.
Key:
[1] = test system: mongrel male mice; assay: Average lifetime of mice in a closed volume (hypoxia); assay type: in vivo
Procedure: The tests of determining average lifetime of animals in a closed volume and on the model of acute hypobaric hypoxia at the minimum atmospheric rarefaction (170-185 mm Hg) were used to study antihypoxic activity of the compunds of general formula (I).
Mice were one by one placed into sealed glass jars and their lifetime was recorded.
The experiment was carried out on 90 mongrel male mice having initial body mass 20 ± 0,5 g housed in cages by 10 animals and given a standard vivarium ration. Average lifetime of mice in closed vessels having volume 250 ml was preliminarily determined and it was 22 to 25 minutes. All the groups included 10 animals each.
Experimental protocol: • a) - preliminary hypoxia for 12 minutes; • b) - first administration of a compound immediately following preliminary hypoxia; • c) - second administration of a compound in 24 hours after the first one, then daily for three days; • d) - recording lifetime of animals under hypoxic conditions in a sealed space 2 hours after the last administration of a compound.
The test compounds were dissolved in distilled water and orally administered to animals for 5 days.
Experimental groups: • Group 1 -(control) - without preliminary hipoxia with oral administration of distilled water for 5 days; • Groups 2 and 3 - administration of the compound XLIV using two doses 50 and 500 µg respectively; • Group 4 - oral administration of sodium oxybutyrate at a dose […] 2 hours before hypoxia; • Group 5 -(control)- with preliminary hypoxia for 12 minutes with subsequent administration of distilled water for 5 days; • Groups 6 and 7 - administration of the compound XLIV using two doses 50 and 500 µg respectively; • Groups 8 and 9 - administration of the compound III using two doses 50 and 500 µg respectively.

[2] = test system: hepatic P-450 cytochrome system; assay: Hexenal sleep duration in mice; assay type: in vivo
How it was run: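 Male mice (several inbred/hybrid lines, 18-20 g, n=10) and mongrel male guinea pigs (250-300 g, n=24) given compounds orally in drinking water for three days at 50 and 500 µg/kg. Hexenal given 24 h after last dose ([…]); sleep duration recorded in minutes.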

[3] = test system: Lewis pulmonary carcinoma (LLC); assay: Lewis pulmonary carcinoma spontaneous metastasizing, oral administration; assay type: in vivo; settings: BDF1 female mice with LLC, oral 24 days; for Mean number of metastases: day 25
Procedure: Each group included 15 animals. 0.3 ml of LLC tumor tissue suspension was intramuscularly injected to mice. Henks solution was used as a solvent. […] Moscow (1992) 13 pp.]. […]

[4] = test system: mongrel male mice; assay: Passive cutaneous anaphylaxis reaction; assay type: in vivo; settings: PCA, oral 3 days
Procedure: Experiments were carried out on mongrel male mice with initial body mass 22-24 g. Each group included 10 animals. Sensibilization of animals was accomplished by intradermal injection of 20-30 µl of the serum of mice obtained from preliminaryly immunized animals comprising reagent antibodies against chicken ovalbumin (OVA). […] In 48 hours after sensibilzation an anaphylaxis-provoking OVA dose (1 mg and 0,2 ml Evans blue in 0.2 ml normal saline) were intravenously injected to mice. Passive cutaneous anaphylaxis reaction intensity (PCA) was determined in 30 minutes by the size (area) of a blue spot on the internal skin surface in the site of reagent anibodies' administration. Spot size was measured in two mutually perpendicular directions and the result was expressed in mm^2.

[5] = test system: α-interferon; assay: α-interferon production by splenocytes after stress; assay type: in vivo, Balb male mice; settings: 50 µg/kg orally
Procedure: Experiments were carried out on inbred Balb male mice with initial body mass 16-18 g. Each group included 12 animals. The model of swimming in warm water for 20 minutes was used to develop emotional-locomotory stress in animals. Stress development was estimated by the activity of natural killer lymphocytes (NK cells) and by functioning of the interferon system [Sukhikh T.G., Nossik N.N., Parshina O.V., Van'ko L.V., Meerson F.Z., Yershov F.I. Relationship between the natural cellular cytotoxicity system and the interferon system in immobilization stress. Bulletin of Experimental Biology (1984), ? , pp.593-595].
In studying interferon reaction of mouse splenocytes spleen cells were placed into incubation medium (the RPMI-1640 medium + 10% fetal calf serum), their concentration was brought to 1-3 x 10^8 cells/ml and they were incubated at 37°C for 24 hours. Newcasle disease virus (α-interferon induction) and FGA mitogen (γ-interferon induction) were used as intereferon inducers [Nossik N.N., Bopegamage S.A., Yershov F.I. Properties of interferons produced by different cell populations. Acta microbiologica Hungarica (1988), Vol. 35, Iss. 4, pp. 397-403].
Animals were divided into four groups, each including 36 mice. • Group 1 - intact animals not subjected to stress and given normal saline (NS). • Group 2 - animals which ere subjected to stress effect and given NS. • Group 3 - animals which were subjected to stress effect and administered compound III. • Group 4 - animals which were subjected to stress effect and administered compound XLIV.
Activity of NK-cells and interferon state were dynamically determined in 4 hours following stress, in 24 hours and then by days 5, 7 and 10.

[6] = with preliminary hypoxia 12 minutes, oral 5 days, 0,05 mg/kg
[7] = with preliminary hypoxia 12 minutes, oral 5 days, 0,50 mg/kg

| Molecule | Lifetime (seconds) [1, 6] | Lifetime (seconds) [1, 7] | Mean number of metastases ([3]; 50 µg/kg) | Mean number of metastases ([3]; 500 µg/kg) | Metastasizing inhibition percent ([3]; 50 µg/kg) [%] | Metastasizing inhibition percent ([3]; 500 µg/kg) [%] | Percent of the reaction inhibition ([4]; 50 µg/kg) [%] | Reaction intensity, mm^2 ([4]; 50 µg/kg) | α-interferon, U/ml ([5]; 0 days after stress) [U/ml] | α-interferon, U/ml ([5]; 0.16 days after stress) [U/ml] | α-interferon, U/ml ([5]; 1 day after stress) [U/ml] | α-interferon, U/ml ([5]; 5 days after stress) [U/ml] | α-interferon, U/ml ([5]; 7 days after stress) [U/ml] | α-interferon, U/ml ([5]; 10 days after stress) [U/ml] | other results |
| --- | --- | --- | --- | --- | --- | --- | --- | --- | --- | --- | --- | --- | --- | --- | --- |
| O=C(O)CCCC(=O)NCCc1c[nH]cn1 [compound III, N-GLUTARYLHISTAMINE] | 1670,6±25,3*^5 seconds | 1532,6±96,0 seconds | 38.5 ±6.3**^1 | 30.1 ± 2.7**^1 | 26.0 | 42.0 | 42 | 51.6 ± 17.1*^2 mm^2 | 160 | 10 | 10 | 160 | 160 | 160 | Hexenal sleep duration (minutes) ([2]; CBF1 mice, oral 3 days, 50 µg/kg, control 25.91 ± 1.57): 19.61 ± 2.69** minutes; Hexenal sleep duration (minutes) ([2]; CBF1 mice, oral 3 days, 500 µg/kg, control 25.91 ± 1.57): 22.02 ± 1.45 * minutes; Percent of the reaction inhibition ([4]; 150 µg/kg): 34.3%; Reaction intensity, mm^2 ([4]; 150 µg/kg): 53.7 ± 10.1*^1 mm^2; Percent of the reaction inhibition ([4]; 500 µg/kg): 30.0%; Reaction intensity, mm^2 ([4]; 500 µg/kg): 57.2 ± 12.6*^1 mm^2 |
| γ-L-glutamylhistamine [compound XLIV] | 1415,5±47,2 seconds | 1844,8±93,2*^5 seconds | 42.4 ± 4.5 | 31.9 ± 3.8*^2 | 10.0 | 32.0 | 50 | 44.6 ± 11.6 mm^2 | 160 | 10 | 80 | 80 | 100 | 140 | Lifetime (seconds) ([1]; without preliminary hypoxia, oral 5 days, 0,05 mg/kg): 2110,6±123,6**^1 seconds; Lifetime (seconds) ([1]; without preliminary hypoxia, oral 5 days, 0,50 mg/kg): 1742,8±68,1*^1 seconds; Hexenal sleep duration ([2]; BALB/c*h75 mice, oral 3 days, 50 µg/kg, control 29.16 ± 5.68): 26.50 ± 3.49 min; Hexenal sleep duration (minutes) ([2]; BALB/c*h75 mice, oral 3 days, 500 µg/kg, control 29.16 ± 5.68): 16.72 ± 1.27*** minutes; Hexenal sleep duration (minutes) ([2]; BDF1 mice, oral 3 days, 500 µg/kg, control 23.78 ± 0.78): 20.33 ± 0.59* minutes; Hexenal sleep duration (minutes) ([2]; mouse, in vivo, po): 17.98 ± 1.66* minutes and 16.13 ± 1.86** minutes |

Source: patent EP2229935A1, “Peptide derivatives or pharmaceutically acceptable salts thereof, method for producing the same, use of said derivatives and pharmaceutical composition” (Nebolsin, Vladimir Evgenievich, priority 1997, dated 1999)
